Laboratory results from patent US8853234B2, “Quinolone analogs and methods related thereto” (Senhwa Biosciences, Inc., priority 2007, dated 2014).
Like-named read-outs stand apart in the source and are kept apart here.

Experiments:
rDNA = experiment: Quantitative PCR (QPCR) assay, rRNA inhibition (rDNA); type: cell-based; set-up: Selectivity: reference not given here; details: for Selectivity: not defined in the patent; for IC50: rRNA inhibition from quantitative PCR assay
Text: In a specific assay embodiment, provided herein is a method for identifying a molecule that modulates ribosomal RNA (rRNA) synthesis, which comprises: contacting cells with a test molecule of Formula (I), (II), (III), (IV), (V), (VI), (VI′), (VII), or (VIII), contacting a ribosomal nucleotide sequence with one or more primers that amplify a portion thereof and a labeled probe that hybridizes to the amplification product, and detecting the amount of the amplification product by hybridization of the labeled probe, whereby a test molecule that reduces or increases the amount of amplification product is identified as a molecule that modulates rRNA synthesis. The labeled probe in some embodiments is added after the primers are added and the rRNA is amplified, and in certain embodiments, the labeled probe and the primers are added at the same time. The portion of ribosomal nucleotide sequence amplified sometimes is at the 5′ end of rDNA.
Real-time quantitative PCR (QPCR) method may be used to detect the changes of the target c-myc and the endogenous reference GAPDH gene copies in the same tube. Generally, cells (15,000 cells/well) are seeded on 96 well flat bottom plates (Corning, N.Y.) and incubated under normal growth conditions for overnight. The next day, the culture medium is exchanged for that containing anticancer drugs at various concentrations and incubated for 4 hrs in a humidified atmosphere of 5% CO2 at 37° C. Total RNA (tRNA) is extracted using the RNeasy 96 Kit (QIAGEN, CA). The concentration of the tRNA is determined by the RiboGreen RNA Quantitation Reagent (Molecular Probes, OR).
A reverse-transcription (RT) reaction may be conducted using 50 ng of tRNA from each well in a 25 μl reaction containing 1× TaqMan RT buffer, 2.5 uM random hexamers, 5.5 mM MgCl2, 0.5 mM each deoxynucleoside triphosphate (dNTP), 30 U MultiScribe Reverse Transcriptase, and 10 U RNase inhibitor. RT reactions are incubated for 10 min at 25° C., reverse-transcribed for 30 min at 48° C., inactivated for 5 min at 95° C., and placed at 4° C. All RT reagents may be purchased from Applied Biosystems, CA.
Real-Time QPCR reaction may be performed in a 50 μl reaction containing the 5 μl of cDNA, 1× Universal PCR Master Mix, 1× c-myc Pre-Developed Primers and Probe set, and 0.8×GAPDH Pre-Developed Primers and Probe set. Because of the relative abundance of GAPDH gene in Hela, GAPDH primers and probe concentration may be adjusted to get accurate threshold cycles (CT) for both genes in the same tube. The threshold cycle (CT) indicates the fractional cycle number at which the amount of amplified target reaches a fixed threshold. By doing so, the GAPDH amplification is stopped before it can limit the common reactants available for amplification of the c-myc. The ΔRn value represents the normalized reporter signal minus the baseline signal. ΔRn increases during PCR as amplicon copy number increases until the reaction approaches a plateau.
The c-myc probe is labeled with 6FAM™ dye-MGB and the GAPDH probe is labeled with VIC™ dye-MTB. Preincubation is performed for 2 min at 50° C. to activate AmpErase UNG enzyme and then for 10 min at 95° C. to activate AmpliTaq DNA Polymerase. DNA is amplified for 40 cycles of 15 sec at 95° C. and 1 min at 60° C. Human c-myc and GAPDH cDNA are amplified, detected, and quantitated in real time using the ABI Prism 7000 Sequence Detection system (Applied Biosystems, CA), which is set to detect both 6-FAM and VIC reporter dyes simultaneously.
The data may be analyzed using the ABI PRISM Sequence Detection System and Microsoft Excel. Relative quantitation is done using the standard curve and comparative CT method at the same time, and both methods gave equivalent results. The cycle at which the amplification plot crosses the CT is known to accurately reflect relative mRNA values. (See, Heid, et al., Genome Res. (1996) 6:986-994; Gibson, et al., Genome Res. (1996) 6:995-1001). […]

[1] = Cassette dosing oral pharmacokinetics in ICR mice; type: in vivo; details: ICR (IcrTac:ICR), mouse; cassette oral dose 25 mg/kg, female ICR mice, plasma, 0-8 h, none in table
Procedure: A cassette dosing procedure was utilized to determine pharmaceutical properties of compounds disclosed herein. In this procedure, compounds are selected for each cassette (i.e., cocktail) on the basis that mass spectrometric signals for each compound will not interfere with one another upon mass spectrometric analysis (e.g., will not overlap). The concentration of each compound in the dosing cassette often is about 20 mg/mL to achieve an oral dose level of 25 mg/kg in ICR mice. Aspects of the cassette dosing procedure are described hereafter.
Prepare 0.5 mL of 20 mg/mL dosing solution (in PBS or formulation vehicle) of 12 test compounds. Dilute a dosing solution 20 fold by transferring 10 μL of the stock solution into 190 μL acetonitrile containing 0.1% formic acid to achieve a final concentration of 1 mg/mL. Dilute further a 1 mg/mL solution 1,000 fold by transferring 1 μL of the stock solution into 999 μL acetonitrile containing 0.1% formic acid to achieve a final concentration of 1 μg/mL. Use the 1 μg/mL solution for mass spectrometric method development based on direct infusion. Determine parent/daughter mass spectra of each compound using multiple reaction monitoring (MRM). Compare parent/daughter mass spectra of each compound to assure no cross-reaction interference during LC-MS/MS measurements. Based on MRM mass spectra determine the composition of all cassettes.
Mix 250 μL of four prepared dosing solutions and an oral PK internal standard (20 mg/mL each) according to cassette design to achieve a final concentration of 4 mg/mL. Vortex cassettes rigorously and ultra-sonicate to obtain a clear solution or homogeneous suspension. Use the cassette solutions to dose animals by oral route of administration at 25 mg/kg.
All in vivo experiments follow protocols approved by the Animal Use and Care Committee. Female ICR mice (IcrTac:ICR), 8-10 weeks of age are obtained from Taconic (Hudson, N.Y.). Mice are housed on a 12 h/12 h light/dark cycle with ad libitum access to water and food. After a minimum two week acclimation period, the mice are randomized into groups with a minimum group size of four. The animals used for pharmacokinetic studies have a body-weight range of 25-35 g. A 25 mg/kg (4 mg/ml) dose of a cassette described in Example 1 is orally administered to mice that have been fasted overnight.
After compound administration, serial blood samples are collected via retro-orbital puncture with a capillary tube at various time points (15, 30 minutes and 1, 2, 4, 6 and 8 hours). The samples are transferred to a heparinized 0.5 mL microcentrifuge tube and placed on ice. Plasma is separated by centrifugation and samples are stored at −80° C. until assay.
Dilute a cassette dosing solution (4 mg/mL) four fold by transferring 25 μL of the stock solution into 75 μL of 50% acetonitrile containing 0.1% formic acid to achieve the concentration of 1 mg/mL. Dilute this stock solution further by serial dilutions to make 0.01, 0.1, 1 and 5 μg/mL working standard solutions.
Prepare 500 mL of 0.5 μg/mL solution of bioanalytical internal standard using 100% acetonitrile with 0.1% formic acid. Store the quenching solution in a tightly sealed bottle at 4° C.
Transfer 15 μL of blank mouse plasma to a 96 well plate and precipitate plasma proteins by pipetting of 120 μL of quenching solution to all plasma aliquots. Cover the plate with a matching plate mat and mix well for 30-60 seconds using a vertical multi-tube shaker.
Add 15 μL of the working standard solution of corresponding cassette to quenched plasma and vortex the plate for an additional 30-60 seconds. Then, centrifuge the plate at 4,000 rpm for 10 minutes at 4° C. Without disturbing the plasma protein pellet, transfer 120 μL of the supernatant to a new 96 well plate and dry the sample under nitrogen using a TurboVap® plate evaporator (Caliper Life Sciences; Hopkinton, Mass.). Reconstitute dried residues with 120 μL 20% acetonitrile containing 0.1% formic acid. […]

[2] = system: A375 cell xenograft tumors; experiment: A375 cell xenograft tumor inhibition; type: in vivo, rodents; details: seven days
Procedure: (§1) Compounds A1, A2 and A3 also were tested for tumor inhibition in xenograft rodents. Rodents having A375 cell xenograft tumors were administered 100 mg/kg, 75 mg/kg and 100 mg/kg doses of Compound A1, A2 and A3, respectively, by oral delivery twice a day. […] Also, rodents having MiaPaCa xenograft tumors were administered 100 mg/kg doses of Compound A1 and A3 by oral delivery twice per day.

MiaPaCa xenograft tumors = experiment: MiaPaCa xenograft tumor inhibition; type: in vivo, rodents; details: 100 mg/kg oral twice per day, twenty-two days
Procedure: as §1

[3] = system: a variety of cell types that are representative of different cancers; experiment: Alamar Blue cell viability assay, variety of cell types representative of different cancers (Tables 12-14); type: cell-based; details: read-out: IC50
Procedure: A representative cell-proliferation assay protocol using Alamar Blue dye (stored at 4° C., use 20 ul per well) is described hereafter.
96-Well Plate Setup and Compound Treatment
a. Split and trypsinize cells.
b. Count cells using hemocytometer.
c. Plate 4,000-5,000 cells per well in 100 μl of medium and seed into a 96-well plate according to the following plate layout. Add cell culture medium only to wells B10 to B12. Wells B1 to B9 have cells but no compound added.
d. Add 100 μl of 2× drug dilution to each well in a concentration shown in the plate layout above. At the same time, add 100 μl of media into the control wells (wells B10 to B12). Total volume is 200 μl/well.
e. Incubate four (4) days at 37° C., 5% CO2 in a humidified incubator.
f. Add 20 μl Alamar Blue reagent to each well.
g. Incubate for four (4) hours at 37° C., 5% CO2 in a humidified incubator.
h. Record fluorescence at an excitation wavelength of 544 nm and emission wavelength of 590 nm using a microplate reader.
In the assays, cells are cultured with a test compound for approximately four days, the dye then is added to the cells and fluorescence of […] dye is detected after approximately four hours. Different types of cells can be utilized in the assays (e.g., HCT-116 human colorectal carcinoma cells, PC-3 human prostatic cancer cells and MiaPaca human pancreatic carcinoma cells). Anti-proliferative effects of representative compounds are provided hereafter.
(§2) Inhibitory activity on cell proliferation of Compounds A1, A2 and A3 was determined using an Alamar Blue cell viability assay (e.g., Example 39 herein) using a variety of cell types that are representative of different cancers Inhibition values (IC50) are presented in micromolar concentrations in the following table (Table 12).
as §2, with “representative compounds of the invention” for “Compounds A1, A2 and A3”, “Table 13 and Table 14.” for “the following table (Table 12).”

[4] = Homo sapiens, A-375, A375, Skin, Epithelial
[5] = Homo sapiens, BXPC-3, BXPC3, Pancreas, Epithelial
[6] = Homo sapiens, HCT-116, HCT-116, Colorectal, Epithelial
[7] = Homo sapiens, HL60/MX2, HL60/MX2, Hematopoetic, Lymphoma
[8] = Homo sapiens, HL-60, HL60, Hematopoetic, Lymphoma
[9] = Homo sapiens, HT-29, HT-29, Colorectal, Epithelial
[10] = Homo sapiens, Jurkat, Hematopoetic, Lymphoma
[11] = Homo sapiens, K562, K562, Hematopoetic, Lymphoblast
[12] = Homo sapiens, LNCaP, Prostate, Fibroblastoid
[13] = Homo sapiens, MDA-MB-231, MDA-MB-231, Breast, Epithelial
[14] = Homo sapiens, MIA PaCa-2, Miapaca-2, Pancreas, Epithelial
[15] = Homo sapiens, NCI-H460, H460, Lung, Epithelial
[16] = Homo sapiens, NCI-H1299, H1299, Lung, NSCL
[17] = Homo sapiens, SAOS-2, Saos-2, Bone, Epithelial
[18] = Homo sapiens, SK-MES-1, SK-MES-1, Lung, Sqaumous carcinoma
[19] = Homo sapiens, SK-OV-3, SK-OV-3, Ovary, Epithelial
[20] = Homo sapiens, U2OS, Bone, Epithelial
[21] = Miapaca-R5, Pancreas, Epithelial

| SMILES | Selectivity (rDNA) | IC50 (rDNA) [nM] | AUC(0-t) [1] [ng·h/mL] | IC50 [3, 4] [nM] | IC50 [3, 5] [nM] | IC50 [3, 6] [nM] | IC50 [3, 7] [nM] | IC50 [3, 8] [nM] | IC50 [3, 9] [nM] | IC50 [3, 10] [nM] | IC50 [3, 11] [nM] | IC50 [3, 12] [nM] | IC50 [3, 13] [nM] | IC50 [3, 14] [nM] | IC50 [3, 15] [nM] | IC50 [3, 16] [nM] | IC50 [3, 17] [nM] | IC50 [3, 18] [nM] | IC50 [3, 19] [nM] | IC50 [3, 20] [nM] | also measured |
| --- | --- | --- | --- | --- | --- | --- | --- | --- | --- | --- | --- | --- | --- | --- | --- | --- | --- | --- | --- | --- | --- |
| CN1CCN(NC(=O)c2c(=O)c3cc(F)c(N4CCOCC4)nc3n3c2sc2ccccc23)CC1 | 89 | 102 | 4360 |  |  |  |  |  |  |  |  |  |  |  |  |  |  |  |  |  |  |
| O=C(NCc1ccccn1)c1c(=O)c2cc(F)c(N3CCOCC3)nc2n2c1sc1ccccc12 | 1 | 22600 | 90600 |  |  |  |  |  |  |  |  |  |  |  |  |  |  |  |  |  |  |
| Cc1cnc(CNC(=O)c2c(=O)c3ccc(N4CCN(C)CC4)nc3n3c2sc2ccccc23)cn1 [Compound A1] |  |  |  | 90 | 56 | 97 | 244 | 264 | 73 | 69 | 140 | 77 | 105 | 103 | 142 | 112 | 264 | 105 | 215 | 752 | A375 tumor growth inhibition relative to untreated control group ([2]; 100 mg/kg oral twice a day): significantly inhibited A375 tumor growth; MiaPaCa tumor growth inhibition relative to untreated control group (MiaPaCa xenograft tumors): significantly inhibited MiaPaCa tumor growth; IC50 ([3]; Homo sapiens, MCF7, MCF-7, Breast, Mammary carcinoma): 348 nM; IC50 ([3]; Homo sapiens, PANC-1, PANC-1, Pancreas, Epithelial): 148 nM; IC50 [3, 21]: 149 nM; IC50 ([3]; PC-3, Prostate, Epithelial): 600 nM |
| Cc1cnc(CNC(=O)c2c(=O)c3ccc(N4CCCN(C)CC4)nc3n3c2sc2ccccc23)cn1 [Compound A2] |  |  |  | 23 | 35 | 32 | 147 | 83 | 42 | 25 | 42 | 29 | 52 | 36 | 90 | 69 | 124 | 21 | 64 | 89 | A375 tumor growth inhibition relative to untreated control group ([2]; 75 mg/kg oral twice a day): significantly inhibited A375 tumor growth; IC50 ([3]; Homo sapiens, COLO 205, COLO-205, Colorectal, Epithelial): 96 nM; IC50 [3, 21]: 34 nM; IC50 ([3]; PC-3, Prostate, Epithelial): 89 nM |
